Measurements as given in patent US20240269145A1, “USE OF INDOLE COMPOUND AS INHIBITORS OF FERROPTOSIS” (MITOIMMUNE THERAPEUTICS INC., priority 2023, published 2024).

Tested on: H9C2 cells
Experiment: Cytosolic iron ion accumulation (FerroOrange, images) after erastin
Type: cell-based
Conditions: H9C2, erastin 1 μM, 7 hours; Example Compound 1 1 μM, DFO 10 or 100 μM
Procedure: To confirm the inhibitory effect against cytosolic iron ion accumulation in adrenal medulla cells and cardiac cells, 3×10^5 PC-12 cells and H9C2 cells were each dispensed into a 35 mm confocal dish and cultured for 18 to 36 hours. Each well was treated with the Example Compound 1, which was diluted so that the final concentration became 1 μM, and with DFO, which was diluted so that the final concentration became 10 µM and 100 μM, and culture was performed for 20 to 30 minutes. Afterwards, the PC-12 cells and H9C2 cells were each treated with RSL3 and erastin so that their final concentration became 0.3 µM and 1 μM, respectively, and cultured for 1 hour and 7 hours. To confirm the inhibitory effect against cytosolic iron ion accumulation, FerroOrange [DOJINDO; F374] was used. According to the manufacturer's experimental method, FerroOrange was diluted in the cell culture medium so that the final concentration became 1 μM, and the cells were treated therewith. […] The cells fluorescently stained with FerroOrange were observed using a fluorescence microscope [Carl Zeiss; Axio Observer 7] to investigate the change in fluorescence (excitation/absorption 580 nm/543 nm) compared to the control group (RSL3 and erastin untreated group).

## O=S1(=O)CCN(Cc2cc(NC3CCOCC3)c3[nH]c(-c4ccccc4)cc3c2)CC1 [Example 1, 5-[(1,1-dioxido-4-thiomorpholinyl)methyl]-2-phenyl-N-(tetrahydro-2H-pyran-4-yl)-1H-indole-7-amine]
  cytosolic iron ion accumulation (images): decrease was confirmed
